Experimental data from patent US8410107B2, “N-pyridin-3-yl or N-pyrazin-2-yl carboxamides” (Hoffmann-La Roche Inc., priority 2010, dated 2013).

How the values were obtained:
human CB1 receptor = target: T1, human CB1 receptor (Homo sapiens, UniProt P21554); test: CB1 receptor affinity ([3H]-CP-55,940 displacement, HEK cell membranes); assay type: binding; conditions: displacement of radioligand [3H]-CP-55,940
T1 construct: expressed in transfected cells; host or cells: human embryonic kidney (HEK) cells, Semliki Forest Virus system, membrane preparations
Protocol: (§1) The affinity of the compounds of the invention for cannabinoid receptors was determined using membrane preparations of human embryonic kidney (HEK) cells in which the human CB1 receptor is transiently transfected using a Semliki Forest Virus system in conjunction with [3H]-CP-55,940 as radioligand. After incubation of freshly prepared cell membrane preparation with the [^3H]-ligand, with or without addition of compounds of the invention, separation of bound and free ligand was performed by filtration over glass fiber filters. Radioactivity on the filter was measured by scintillation counting.
(§2) The ability of the compounds to displace the radioligand [^3H]-CP-55,940 was measured at a concentration of 10 μM and values provided as [% inhibition @ 10 μM] both for the CB1 and CB2 receptor assay, The lower % inhibition is, the lower the likelihood of side effects based on CB1 or CB2 receptor inhibition is.

ABCA1 protein = test: Detection of upregulation of ABCA1 protein in cells (ApoA-I binding, high content image analysis); assay type: cell-based; conditions: THP-1 macrophage cells; for EC50: ABCA1 protein increasing efficacy; for % increase of ABCA1 at 3 μM: 24 hrs with compound
Protocol: The ability of compounds of the invention to increase the level of ABCA1 protein is determined in replicate cultures of THP-1 macrophage cells in 96-well microplates. Cells are plated at an initial density of 100,000 cells/well in 100 μl medium and differentiated to adherent macrophages with the addition of PMA (100 nM) for 68 hrs in 10% fetal bovine serum, 3 μl/L of b-mercaptoethanol, RPMI-1640 medium. Then, cells are incubated with RPMI-1640 medium containing 1% FCS, 25 μg/ml acetylated LDL, for 24 hours at 37°. Following incubation with acetylated LDL, cells are washed twice with 50 μl PBS and incubated with 100 μl of RPMI-1640 medium containing the compound of interest solubilized in DMSO for an additional 24 hrs. The final DMSO concentration in presence of cells is maintained at 0.5%. ApoA-I binding assay using High Content Image Analysis is initiated by replacing with fresh medium, RPMI without Phenol Red, 0.2% BSA containing AlexaFluor®647 labeled ApoA-I for 2 h/37° C./5% CO2. Then, cells are fixed with 4% Formaldehyde inPBS (15 min, RT). Following Nuclei are stained with Hoechst solution (3 μM PBS) and Cytoplasm with Cell Mask Blue (2 μg/ml PBS), 15 min, RT. Finally the stained cells are fixed with a second round of formaldehyde treatment. Fixed stained cells are washed and kept in PBS at 4° C. and can be read immediately until one month after preparation.
The Alexa Fluor 647-labeled Apolipoprotein A-I (20 nM) was prepared as follows: Human recombinant Apolipoprotein A-I (ApoA-I) was exchanged to a buffer of 0.02 M NaHCO3 at pH 8.2 on an NAP desalting column (GE Healthcare) and brought to a concentration to 40 μM (1.13 mg/ml) by adjustment with the same buffer. The ApoA-I was fluorescently labeled by incubation with Alexa Fluor carboxylic acid succimidyl ester. (Alexa Fluor 647, Invitrogen A-20006) at a 2:1 molar ratio (Alexa to ApoA-I) for 1 h under shaking at RT. The remaining unconjugated label was removed by buffer exchange to 0.02M NaHCO3 at pH 8.2.
Imaging and data collection were performed on an OPERA confocal microplate imaging reader using a 20× water immersion objective and UV360 or 405 laser to identify the cell nuclei and a 635 laser to identify the fluorescent ApoA-I. Eight fields of view are captured per well. Image capture and analysis was performed with the Acapella software. Background fluorescence detected in control wells without ApoA-I was subtracted.
Using XLfit3 program (ID Business Solutions Ltd. UK), the model 205 for Dose Response One Site is used to calculate the EC50 values. The compounds of the present invention increase the level of ABCA1 protein by more than 45% at a concentration of 3 μM. […] Even more preferably, the compounds of the present invention have EC50 values in a range of 0.1 μM to 3 μM.

human CB2 receptor = target: T2, human CB2 receptor (Homo sapiens, UniProt P34972); test: CB2 receptor affinity ([3H]-CP-55,940 displacement, HEK cell membranes); assay type: binding; conditions: displacement of radioligand [3H]-CP-55,940
T2 construct: expressed in transfected cells; host or cells: human embryonic kidney (HEK) cells, Semliki Forest Virus system, membrane preparations
Protocol: as §1, with “cannabinoid CB2” for “cannabinoid”, “CB2” for “CB1”, “[^3H]-CP-55,940” for “[3H]-CP-55,940”
as §2

T1 sequence (P21554 whole entry): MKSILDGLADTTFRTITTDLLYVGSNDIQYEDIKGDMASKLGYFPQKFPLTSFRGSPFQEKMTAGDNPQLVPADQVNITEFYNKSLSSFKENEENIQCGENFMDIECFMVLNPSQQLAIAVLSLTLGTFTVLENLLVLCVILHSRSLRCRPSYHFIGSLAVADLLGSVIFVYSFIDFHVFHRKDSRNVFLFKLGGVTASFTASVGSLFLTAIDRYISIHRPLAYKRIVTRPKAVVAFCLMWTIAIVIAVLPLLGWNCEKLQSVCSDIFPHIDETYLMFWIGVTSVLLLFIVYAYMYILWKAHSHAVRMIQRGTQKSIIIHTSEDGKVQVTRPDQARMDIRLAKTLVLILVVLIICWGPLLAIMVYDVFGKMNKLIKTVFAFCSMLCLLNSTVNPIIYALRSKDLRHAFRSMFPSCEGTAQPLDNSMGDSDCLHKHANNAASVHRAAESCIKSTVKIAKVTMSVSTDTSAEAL
T2 sequence (P34972 whole entry): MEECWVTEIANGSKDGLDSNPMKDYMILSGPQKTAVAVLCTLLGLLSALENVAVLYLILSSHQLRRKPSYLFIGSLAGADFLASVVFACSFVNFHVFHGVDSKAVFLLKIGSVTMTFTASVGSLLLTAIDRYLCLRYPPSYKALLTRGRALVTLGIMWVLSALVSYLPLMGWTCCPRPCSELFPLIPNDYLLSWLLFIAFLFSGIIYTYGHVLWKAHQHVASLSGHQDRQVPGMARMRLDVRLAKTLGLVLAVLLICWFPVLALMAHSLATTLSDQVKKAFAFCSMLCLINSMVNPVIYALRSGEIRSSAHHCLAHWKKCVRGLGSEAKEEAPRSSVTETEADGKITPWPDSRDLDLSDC

Row | SMILES | inhibition at 10 µM (human CB1 receptor) [%] | inhibition at 10 µM (human CB2 receptor) [%] | EC50 (ABCA1 protein) [nM] | % increase of ABCA1 at 3 μM (ABCA1 protein) [% @ 3 μM]
1 | Cn1nccc1C(=O)Nc1cnc(OCC(F)(F)F)c(-c2ccc(Cl)cc2)c1 [Example 20, 1-methyl-1H-pyrazole-5-carboxylic acid[5-(4-chloro-phenyl)-6-(2,2,2-trifluoro-ethoxy)-pyridin-3-yl]-amide] | 34 | 9 | 6400 | –
2 | Cc1nc(C)c(C(=O)Nc2cnc(OCC(F)(F)F)c(-c3ccc(Cl)cc3)c2)o1 [Example 21, 2,4-dimethyl-5-oxazolecarboxylic acid[5-(4-chloro-phenyl)-6-(2,2,2-trifluoro-ethoxy)-pyridin-3-yl]-amide] | 29 | 1 | 1370 | –
3 | O=C(Nc1cnc(OCC(F)(F)F)c(-c2ccc(Cl)cc2)c1)c1ccns1 [Example 22, 5-isothiazolecarboxylic acid[5-(4-chloro-phenyl)-6-(2,2,2-trifluoro-ethoxy)-pyridin-3-yl]-amide] | 45 | 8 | – | >45
4 | Cc1cc(C(=O)Nc2cnc(OCC(F)(F)F)c(-c3ccc(Cl)cc3)c2)n[nH]1 [Example 23, 5-methyl-1H-pyrazole-3-carboxylic acid[5-(4-chloro-phenyl)-6-(2,2,2-trifluoro-ethoxy)-pyridin-3-yl]-amide] | 12 | -8 | 720 | –
5 | O=C(Nc1cnc(OCC(F)(F)F)c(-c2ccc(Cl)cc2)c1)c1cc[nH]n1 [Example 24, 1H-pyrazole-3-carboxylic acid[5-(4-chloro-phenyl)-6-(2,2,2-trifluoro-ethoxy)-pyridin-3-yl]-amide] | 25 | -1 | 2310 | –
6 | Cc1cc(C(=O)Nc2cnc(OCC(F)(F)F)c(-c3ccc(Cl)cc3)c2)ccn1 [Example 25, N-[5-(4-chloro-phenyl)-6-(2,2,2-trifluoro-ethoxy)-pyridin-3-yl]-2-methyl-4-pyridinecarboxylic acid amide] | 25 | -1 | 2650 | –
7 | Cc1cnc(C(=O)Nc2cnc(OCC(F)(F)F)c(-c3ccc(Cl)cc3)c2)s1 [Example 26, 5-methyl-2-thiazole-carboxylic acid[5-(4-chloro-phenyl)-6-(2,2,2-trifluoro-ethoxy)-pyridin-3-yl]-amide] | 37 | 11 | – | >45
8 | Cc1nnsc1C(=O)Nc1cnc(OCC(F)(F)F)c(-c2ccc(Cl)cc2)c1 [Example 27, 4-methyl-1,2,3-thiadiazole-5-carboxylic acid[5-(4-chloro-phenyl)-6-(2,2,2-trifluoro-ethoxy)-pyridin-3-yl]-amide] | 47 | 10 | – | >45
9 | Cc1ccc(C(=O)Nc2cnc(OCC(F)(F)F)c(-c3ccc(Cl)cc3)c2)cn1 [Example 28, N-[5-(4-chloro-phenyl)-6-(2,2,2-trifluoro-ethoxy)-pyridin-3-yl]-6-methyl-3-pyridinecarboxylic acid amide] | 36 | -6 | – | >45

The next lines start with results.

Row | inhibition at 10 µM (human CB1 receptor) [%] | inhibition at 10 µM (human CB2 receptor) [%] | SMILES | EC50 (ABCA1 protein) [nM] | % increase of ABCA1 at 3 μM (ABCA1 protein) [% @ 3 μM]
10 | 41 | 19 | Cc1ncccc1C(=O)Nc1cnc(OCC(F)(F)F)c(-c2ccc(Cl)cc2)c1 [Example 29, N-[5-(4-chloro-phenyl)-6-(2,2,2-trifluoro-ethoxy)-pyridin-3-yl]-2-methyl-3-pyridinecarboxylic acid amide] | – | >45
11 | 27 | -4 | O=C(Nc1cnc(OCC(F)(F)F)c(-c2ccc(Cl)cc2)c1)c1ccno1 [Example 30, 5-isoxazolecarboxylic acid[5-(4-chloro-phenyl)-6-(2,2,2-trifluoro-ethoxy)-pyridin-3-yl]-amide] | 3860 | –
12 | 44 | 7 | Cc1noc(C)c1C(=O)Nc1cnc(OCC(F)(F)F)c(-c2ccc(Cl)cc2)c1 [Example 31, 3,5-dimethyl-4-isoxazolecarboxylic acid[5-(4-chloro-phenyl)-6-(2,2,2-trifluoro-ethoxy)-pyridin-3-yl]-amide] | – | >45
13 | 21 | 0.9 | O=C(Nc1cnc(OCC(F)(F)F)c(-c2ccc(Cl)cc2)c1)c1ccnc(O)c1 [Example 32, N-[5-(4-chloro-phenyl)-6-(2,2,2-trifluoro-ethoxy)-pyridin-3-yl]-1,2-dihydro-2-oxo-4-pyridinecarboxylic acid amide] | 1000 | –
14 | 22 | -2 | Cc1nn(C)cc1C(=O)Nc1cnc(OCC(F)(F)F)c(-c2ccc(Cl)cc2)c1 [Example 33, 1,3-dimethyl-1H-pyrazole-4-carboxylic acid[5-(4-chloro-phenyl)-6-(2,2,2-trifluoro-ethoxy)-pyridin-3-yl]-amide] | – | >45
15 | 31 | 10 | O=C(Nc1cnc(OCC(F)(F)F)c(-c2ccc(Cl)cc2)c1)c1ccncn1 [Example 34, 4-pyrimidinecarboxylic acid[5-(4-chloro-phenyl)-6-(2,2,2-trifluoro-ethoxy)-pyridin-3-yl]-amide] | 2400 | –
16 | 18 | -3 | O=C(Nc1cnc(OCC(F)(F)F)c(-c2ccc(Cl)cc2)c1)c1nccs1 [Example 35, 2-thiazolecarboxylic acid[5-(4-chloro-phenyl)-6-(2,2,2-trifluoro-ethoxy)-pyridin-3-yl]-amide] | – | >45
17 | 18 | 2 | Cc1cccnc1C(=O)Nc1cnc(OCC(F)(F)F)c(-c2ccc(Cl)cc2)c1 [Example 36, 3-methyl-2-pyridinecarboxylic acid[5-(4-chloro-phenyl)-6-(2,2,2-trifluoro-ethoxy)-pyridin-3-yl]-amide] | 510 | –
18 | 27 | 8 | Cc1ocnc1C(=O)Nc1cnc(OCC(F)(F)F)c(-c2ccc(Cl)cc2)c1 [Example 37, 5-methyl-4-oxazolecarboxylic acid[5-(4-chloro-phenyl)-6-(2,2,2-trifluoro-ethoxy)-pyridin-3-yl]-amide] | – | >45
19 | 12 | 15 | Cc1ccc(-c2cc(NC(=O)c3cccnc3)cnc2OCC(F)(F)F)cc1C [Example 38, N-(5-(3,4-dimethylphenyl)-6-(2,2,2-trifluoroethoxy)pyridin-3-yl)nicotinamide] | 2910 | –
20 | 19 | 16 | Cc1cc(-c2cc(NC(=O)c3cccnc3)cnc2OCC(F)(F)F)ccc1Cl [Example 39, N-(5-(4-chloro-3-methylphenyl)-6-(2,2,2-trifluoroethoxy)pyridin-3-yl)nicotin-amide] | 2230 | –
